Consider two molecules from US4065453A, “Levorotatory molindone and the use as an antidepressant” (Endo Laboratories, Inc., priority 1976, dated 1977).

Each structure is given as a SMILES string.

The nature of assay [1]: Exploratory Loss. The format is in vivo, mouse. As to conditions: for ED50: po, mouse, p.o., loss of exploratory activity, column 3, read-out: ED50 mouse EXPL. LOSS. An excerpt: The mouse is placed on a stainless steel wire mesh screen (8 × 12 inches, 3 mesh per inch, 1/4inch mesh openings) "shoe-box" lid (1inch high) and is observed for normal activities, such as nose movements, head movements with apparent visual examination of the area, and/or walking around on the screen. Normal mice respond within 2 to 3 seconds. Absence of or a marked depression of these activities for 5 seconds constitutes a loss of exploratory activity. The ED50 's for the compound of the present invention and for the molindone racemic mixture are given in the following table, along with certain appropriate ratios: […]

The nature of assay [2]: Rat Conditioned Avoidance Response (rat CAR). The format is in vivo. The following applies: for ED50: po, rat, p.o., block of conditioned avoidance response in 50% of rats, tested 1, 2 and 4 hours after dosing, column 4. The procedure: Blocking of CAR in rats at nontoxic doses correlates with major tranquilizer activity in man. Rats are trained to jump out of a pit onto a ledge to avoid shock when presented with a conditioned stimulus of light and sound. Three or four doses of durg are given to a group of 4-8 rats. The animals are tested 1, 2 and 4 hours after dosing. A quantal ED50 is calculated as the dose which would block the CAR in 50% of the rats. The results are given in mg/kg., p.o. (Table 1) The ED50 's for the compound of the present invention and for the molindone racemic mixture are given in the following table, along with certain appropriate ratios: […]

Assay [3] can be described thus: Tetrabenazine Antagonism (Anti-TBZ). The assay is classed as in vivo, mouse (Carworth CF1 S female mice). The following applies: for ED50: po, 1 h, mouse, p.o., tetrabenazine 32 mg/kg i.p. 30 min after compound. The procedure: Groups of 10 Carworth CF1 S female mice, 18-21 g each, were fasted 1.5 hours and were incubated with antagonist compounds at oral doses of 0, 5, 25, and 125 mg/kg or 0, 1, 3, 9, 27, and 81 mg/kg in 0.20 ml of 1% Methocel. The mice were challenged 30 minutes later with tetrabenazine (as the methanesulfonate), 32 mg/kg intraperitoneally (dissolved in 0.20 ml 0.05M KCl at pH 2.0). One hour after antagonist (30 minutes after tetrabenzaine), the mice were examined for signs of exploratory activity and ptosis (eyelid closure). Normal exploratory activity (relief from sedation) was recorded when a mouse lifted by the tail from a group of 10 in a testing box and placed on a stainless steel testing box lid (12.5 × 8 inches with 0.33 inch mesh) either turned its head horizontally 30° in both directions or moved to the edge of the screen within 10 seconds after being placed on the screen. Relief from ptosis was recorded when exactly two seconds after placing the mouse facing the observer, lid closure was less than 50% in both eyes.
The ED50 's for the compound of the present invention and for the molindone racemic mixture are given in the following table, along with certain appropriate ratios: […]

The mark [4] stands for this setting: relief from ptosis, column 1, read-out: ED50 mouse ANTI-TBZ ptosis.
[5] abbreviates: relief from sedation (exploratory activity), column 2, read-out: ED50 mouse ANTI-TBZ expl. loss.

By ED50 is commonly meant the midpoint of the dose-response relation. For the molecule `CCc1c(C)[nH]c2c1C(=O)C(CN1CCOCC1)CC2` (racemic) [(±)-molindone, 3-ethyl-6,7-dihydro-2-methyl-5(morpholinomethyl)indol-4(5H)-one, reference compound], the ED50 in assay [1] came to 38 mg/kg; in assay [2] it was 28 mg/kg; in assay [3] (setting [4]), 7.2 mg/kg; in assay [3] (setting [5]), 9 mg/kg.

For the molecule `CCc1c(C)[nH]c2c1C(=O)C(CN1CCOCC1)CC2` (single isomer, unassigned; (-)) [(-)-molindone], the “separation of the antidepressant activity from the sedative activity” value in assay [1] (as compared with the racemate, from the ratios in the table, in words) was “clear separation of the antidepressant activity from the sedative activity”. For the same molecule, the “sedative activity compared with the racemate” value in assay [1] (in words) is “approximately the same sedative and tranquilizer activity as the racemate”. In addition, the ED50 in assay [1] was 25 mg/kg; in assay [2], 21 mg/kg; in assay [3] (setting [4]) it was 2.7 mg/kg; in assay [3] (setting [5]), 3.4 mg/kg. In addition, in assay [2] (in words), the “tranquilizer activity compared with the racemate” value was “approximately the same sedative and tranquilizer activity as the racemate”. Also, in assay [3] (in words), the “antidepressant activity compared with the racemate” value is listed as “significantly greater antidepressant activity”.
